According to patent US20260049077A1, “Neurotrophic Receptor Tyrosine Kinase (NTRK) Inhibitors and Methods Using Same” (Baylor College of Medicine, priority 2022, published 2026):
Several values for one entry are separate records, joined by “and”; a condition that tells them apart may be missing. Identical values can stand only once. Entries after “also recorded” stand apart in the source; their conditions may differ. Like-named read-outs stand apart in the source and are kept apart here. Each block holds one molecule with its values, some of them ahead of it.

How the values were obtained:
[1] = in vivo; cited from earlier work
[2] = at 4 h; cited from earlier work
[3] = Metabolic stability in mouse liver microsomes (MLM)
[4] = Metabolic stability in mouse and human liver microsomes; assay type: in vitro ADME; settings: mouse and human liver microsomes in vitro
[5] = molecular target: T1, NTRK2 (Homo sapiens (Human), UniProt Q16620); test: NTRK2 inhibition (IC50); assay type: biochemical
T1 sequence (Q16620 32-822): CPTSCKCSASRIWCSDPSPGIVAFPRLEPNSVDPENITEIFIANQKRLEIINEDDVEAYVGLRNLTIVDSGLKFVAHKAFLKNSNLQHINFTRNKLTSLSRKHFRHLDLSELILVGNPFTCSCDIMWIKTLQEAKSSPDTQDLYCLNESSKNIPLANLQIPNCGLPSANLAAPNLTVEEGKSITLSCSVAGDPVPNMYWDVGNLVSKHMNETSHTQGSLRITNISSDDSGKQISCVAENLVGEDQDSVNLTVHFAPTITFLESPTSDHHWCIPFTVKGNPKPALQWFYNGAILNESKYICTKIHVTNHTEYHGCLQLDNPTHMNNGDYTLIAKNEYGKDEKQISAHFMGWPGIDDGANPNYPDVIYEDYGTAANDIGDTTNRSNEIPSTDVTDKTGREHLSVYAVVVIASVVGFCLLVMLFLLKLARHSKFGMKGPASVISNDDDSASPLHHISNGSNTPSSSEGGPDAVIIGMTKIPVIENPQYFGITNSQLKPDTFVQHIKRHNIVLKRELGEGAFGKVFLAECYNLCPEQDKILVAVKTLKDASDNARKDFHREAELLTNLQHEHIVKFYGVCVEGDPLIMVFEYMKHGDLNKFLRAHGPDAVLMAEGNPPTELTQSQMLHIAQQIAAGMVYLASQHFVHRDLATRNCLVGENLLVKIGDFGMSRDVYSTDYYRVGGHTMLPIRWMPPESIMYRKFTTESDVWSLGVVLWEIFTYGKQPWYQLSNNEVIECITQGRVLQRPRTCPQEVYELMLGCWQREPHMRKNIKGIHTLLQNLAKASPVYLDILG

[6] = molecular target: T1, NTRK2; test: Promega NTRK2 NanoBRET live-cell target engagement; assay type: cell-based; settings: live cells
Description: FIGS. 6A-6B show the live-cell engagement (FIG. 6A) concept and an NTRK2 example (FIG. 6B). FIG. 6A: Depiction of Promega's NanoBRET target engagement system as per their website. The system involves cell-based competitive displacement of a fluorescent NanoBRET tracer bound reversibly to a NanoLuc fusion protein. Test compounds displace the tracer dependent on their affinity for the target and […] the NanoBRET signal. FIG. 6B: Example of the use of Promega's NTRK2 NanoBRET cell-based system. Each NTRK2 compound (Cpd) was assayed in kinase assays and in cells. Multiple NTRK2 compounds enter the cell and are potent nanomolar inhibitors in these assays (% normalized to no Cpd).
As described elsewhere herein, hit compounds, including but not limited to CDD-2262, and its smaller analog, CDD-2330, were synthesized off-DNA and evaluated for NTRK2 activity.

[7] = Metabolic stability in human liver microsomes (HLM)
[8] = molecular target: T1, NTRK2; test: NTRK2 apparent inhibition constant (Ki app)
[9] = tested on: PTGS2 mRNA in endometriotic stromal cells; test: PGE2-stimulated PTGS2 gene expression in endometriotic stromal cells (RT-PCR); assay type: cell-based; settings: 1 μM PGE2, 6-hour period
Description: FIG. 12A: estrogen, secreted by the ovary and endometriotic lesions, signals to macrophages and nerve fibers, including production of BDNF/NT-3 and pro-inflammatory cytokines, respectively. […] Activated CREB acts on the PTGS2 promoter, creating a positive feedback mechanism that results in elevated inflammation. PGE2 signaling also stimulates PKA/PKC signaling to induce the production of BDNF and NTF3 expression. […] Gene expression of PTGS2 was quantified using quantitative real time PCR (RT-PCR).
Thus, the present disclosure provides evidence that administration of CDD-2330 results in suppression of markers associated with inflammation, and accordingly, is suitable for the treatment of endometriosis.

[10] = tested on: FLT3-ITD; settings: cited from earlier work
[11] = molecular target: NTRK3 (Homo sapiens (Human), UniProt Q16288); test: NTRK3 inhibition (IC50); settings: read-out: NTRK3 IC50
Chain of NTRK3 (Q16288 32-839): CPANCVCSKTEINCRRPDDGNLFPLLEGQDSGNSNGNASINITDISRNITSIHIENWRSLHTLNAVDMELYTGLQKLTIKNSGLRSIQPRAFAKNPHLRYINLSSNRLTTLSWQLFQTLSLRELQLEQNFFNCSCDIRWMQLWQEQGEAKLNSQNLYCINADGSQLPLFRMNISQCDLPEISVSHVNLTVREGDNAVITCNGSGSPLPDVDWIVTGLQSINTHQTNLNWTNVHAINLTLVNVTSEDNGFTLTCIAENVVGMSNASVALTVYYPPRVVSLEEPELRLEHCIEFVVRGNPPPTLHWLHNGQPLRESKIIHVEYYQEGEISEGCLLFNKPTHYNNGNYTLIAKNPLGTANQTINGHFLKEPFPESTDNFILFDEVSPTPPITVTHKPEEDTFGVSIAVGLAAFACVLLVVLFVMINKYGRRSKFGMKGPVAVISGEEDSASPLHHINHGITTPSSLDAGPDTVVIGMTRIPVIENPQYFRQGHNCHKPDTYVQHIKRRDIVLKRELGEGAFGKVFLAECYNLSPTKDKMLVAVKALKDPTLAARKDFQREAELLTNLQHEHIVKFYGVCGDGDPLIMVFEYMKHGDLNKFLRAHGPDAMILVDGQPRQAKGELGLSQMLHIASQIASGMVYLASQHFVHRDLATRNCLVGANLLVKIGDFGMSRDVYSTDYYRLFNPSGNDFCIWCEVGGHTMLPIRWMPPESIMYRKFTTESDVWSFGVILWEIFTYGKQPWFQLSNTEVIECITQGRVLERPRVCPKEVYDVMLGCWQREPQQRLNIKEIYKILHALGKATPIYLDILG

[12] = tested on: human kinome; test: KINOMEscan kinome-wide binding profiling; settings: 1 μM
Description: (§1) FIG. 7B: Using the ThermoFisher Z'-LYTE™ screening assay, kinase specificity for the NTRK subfamily was observed.
(§2) To broadly assess the kinome-wide selectivity of CDD-2330, a KINOMEscan profiling platform was employed (FIG. 7A).

[13] = Pharmacokinetics of orally administered CDD-2330 in mice; assay type: in vivo, mouse; settings: oral 50 mg/kg
Description: CDD-2330 was dissolved in 10% DMSO+0.5% methyl cellulose at 5 mg/mL. CDD-2330 was orally delivered at 50 mg/kg to mice (n=4). Blood samples were collected at 0, 0.25, 0.5, 1, 2, 4, 6, 8, and 24 h. Samples were analyzed by LC-MS, and the concentration of CDD-2330 was quantified with a standard curve (range: 0-10 μM). CDD-3031 was administered by oral gavage at a dose of 50 mg/kg. Blood samples were collected at […], 0.167, 0.25, 0.5, 1, 2, 4, 6, 8, and 24 h.

[14] = Plasma ALT and AST in mice after a high dose (50 mg/kg); assay type: in vivo, mouse
[15] = Mouse brain and testis distribution; assay type: in vivo; settings: ip, mice, intraperitoneal
Description: FIGS. 9A-9B show mouse brain (FIG. 9A) and testis (FIG. 9B) distribution of CDD-2330. Mice (n=3 per timepoint) were treated intraperitoneally with CDD-2330 and brain, testis, and blood samples were collected. Samples were processed and analyzed by LC-MS.

[16] = molecular target: NTRKs; test: ThermoFisher Z'-LYTE kinase assay, NTRKs; assay type: biochemical; settings: Z'-LYTE dose response; range over NTRKs
Description: as §1, §2

[17] = molecular target: MAP3K19 (Homo sapiens (Human), UniProt Q56UN5); test: ThermoFisher Z'-LYTE kinase assay, MAP3K19; assay type: biochemical
Chain of MAP3K19 (Q56UN5 whole entry): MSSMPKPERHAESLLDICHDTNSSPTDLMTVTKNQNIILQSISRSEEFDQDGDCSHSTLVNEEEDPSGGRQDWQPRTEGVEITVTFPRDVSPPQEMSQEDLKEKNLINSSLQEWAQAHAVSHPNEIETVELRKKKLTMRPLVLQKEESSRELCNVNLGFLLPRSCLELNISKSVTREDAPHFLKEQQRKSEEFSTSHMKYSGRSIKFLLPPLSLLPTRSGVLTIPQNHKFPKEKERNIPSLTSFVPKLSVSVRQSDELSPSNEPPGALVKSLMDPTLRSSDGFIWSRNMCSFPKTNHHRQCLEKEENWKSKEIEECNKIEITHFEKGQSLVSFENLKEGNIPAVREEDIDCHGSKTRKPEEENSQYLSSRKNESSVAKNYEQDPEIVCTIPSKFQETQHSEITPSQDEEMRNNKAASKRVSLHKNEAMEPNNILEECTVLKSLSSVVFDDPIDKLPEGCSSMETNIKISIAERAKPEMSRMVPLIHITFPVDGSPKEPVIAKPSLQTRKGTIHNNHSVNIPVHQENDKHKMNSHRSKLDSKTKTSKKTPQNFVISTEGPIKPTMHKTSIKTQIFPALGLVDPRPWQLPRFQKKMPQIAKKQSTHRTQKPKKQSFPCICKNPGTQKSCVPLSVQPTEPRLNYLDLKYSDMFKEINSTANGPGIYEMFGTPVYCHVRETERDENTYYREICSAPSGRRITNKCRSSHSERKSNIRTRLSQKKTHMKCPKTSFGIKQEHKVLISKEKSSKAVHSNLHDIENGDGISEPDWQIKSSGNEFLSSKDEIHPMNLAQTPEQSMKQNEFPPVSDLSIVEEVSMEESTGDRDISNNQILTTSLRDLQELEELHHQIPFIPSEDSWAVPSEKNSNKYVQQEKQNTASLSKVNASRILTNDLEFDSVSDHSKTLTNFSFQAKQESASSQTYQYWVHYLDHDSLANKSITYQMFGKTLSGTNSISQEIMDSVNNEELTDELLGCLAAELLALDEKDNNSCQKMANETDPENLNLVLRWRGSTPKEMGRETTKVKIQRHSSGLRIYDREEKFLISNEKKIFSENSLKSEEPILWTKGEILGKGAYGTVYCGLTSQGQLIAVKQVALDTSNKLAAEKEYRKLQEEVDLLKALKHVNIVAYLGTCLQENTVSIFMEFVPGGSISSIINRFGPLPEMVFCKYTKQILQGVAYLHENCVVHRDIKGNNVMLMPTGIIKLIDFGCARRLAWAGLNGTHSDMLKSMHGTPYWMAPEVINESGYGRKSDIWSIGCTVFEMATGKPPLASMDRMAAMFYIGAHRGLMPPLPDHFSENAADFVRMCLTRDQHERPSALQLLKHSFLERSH

[18] = molecular target: NTRK1 (Homo sapiens (Human), UniProt P04629); test: NTRK1 inhibition (IC50); settings: read-out: NTRK1 IC50
Chain of NTRK1 (P04629 33-796): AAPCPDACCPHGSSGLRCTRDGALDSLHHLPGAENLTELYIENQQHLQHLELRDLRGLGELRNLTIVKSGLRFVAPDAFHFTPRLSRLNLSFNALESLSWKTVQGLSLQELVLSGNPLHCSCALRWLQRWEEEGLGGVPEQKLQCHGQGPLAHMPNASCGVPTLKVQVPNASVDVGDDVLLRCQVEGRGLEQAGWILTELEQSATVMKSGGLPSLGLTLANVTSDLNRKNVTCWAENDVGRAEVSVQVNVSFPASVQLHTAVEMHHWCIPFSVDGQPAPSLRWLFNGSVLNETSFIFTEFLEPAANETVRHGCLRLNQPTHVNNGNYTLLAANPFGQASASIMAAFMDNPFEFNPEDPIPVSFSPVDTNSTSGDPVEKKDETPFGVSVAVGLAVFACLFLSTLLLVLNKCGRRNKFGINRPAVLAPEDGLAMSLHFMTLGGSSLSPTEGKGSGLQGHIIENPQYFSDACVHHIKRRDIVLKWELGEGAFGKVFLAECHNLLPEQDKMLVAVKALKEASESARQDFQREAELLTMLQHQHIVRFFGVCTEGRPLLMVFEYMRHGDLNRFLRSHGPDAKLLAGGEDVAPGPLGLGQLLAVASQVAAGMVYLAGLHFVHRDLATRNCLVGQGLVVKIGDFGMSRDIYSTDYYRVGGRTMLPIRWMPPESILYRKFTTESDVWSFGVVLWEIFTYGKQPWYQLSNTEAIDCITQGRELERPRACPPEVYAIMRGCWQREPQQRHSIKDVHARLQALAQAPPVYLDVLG

[19] = tested on: endometriotic lesions; test: Endometriosis mouse model, lesion efficacy; assay type: in vivo; settings: endometriosis mouse model, compared to controls
Description: FIGS. 17A-17F depict the robust efficacy of the inhibitory compounds of the present disclosure as NTRK2 inhibitors for inhibition of endometriotic lesion growth in mice utilizing CDD-3132 as an example. FIG. 17A provides a schematic overview of the experiment performed. FIGS. 17B-17C provide photographs showing excised lesions with administration of a control (FIG. 17B) or CDD-3132 (10 mg/kg/day) (FIG. 17C).
(§3) In one aspect, the present disclosure provides exemplary data relating to the administration of NTRK2 inhibitors in a mouse model of endometriosis (FIG. 14). In certain embodiments, the recipient mouse is administered the NTRK2 inhibitor and/or controls on day 14 after intraperitoneal injection of endometrium of the donor mouse. In certain embodiments, the recipient mouse is sacrificed and quantitatively assessed on day 28.

[20] = Brain uptake in mice 24 hours post-administration; assay type: in vivo, mouse; settings: mouse, brain, 24 h, read-out: Brain Concentration at 24 h (ng/mg)
[21] = Endometriosis mouse model, liver and kidney toxicity (organ weight, ALT, AST); assay type: in vivo
Description: as §3

[22] = mouse, microsomes
[23] = human, microsomes
[24] = plasma, 48 h after oral 50 mg/kg CDD-2330, individual mice
[25] = group average, CDD-2737 at 10 mg/kg/day for 14 days, n-butyrate 100 mM
[26] = individual mice, CDD-2737 at 10 mg/kg/day for 14 days, n-butyrate 100 mM

Molecule: O=C(Nc1cnn2ccc(N3CCC[C@@H]3c3cc(F)ccc3F)nc12)N1CC[C@H](O)C1 [larotrectinib]
- blood-brain barrier crossing [1]: cross the blood-brain barrier

Molecule: CNCC[C@@H](Oc1ccccc1C)c1ccccc1 [atomoxetine]
- Brain:Plasma (comparator antidepressant drug) [2]: 20

- half-life [3]: 8.87 h
- half-life [4]: > 7 h
- IC50 [5]: 32 nM
- half-life [7]: 7.37 h
- Ki [8]: 17 ± 10 nM
Molecule: O=C(O)c1cnn2ccc(CN(C(=O)Nc3ccc(OC(F)(F)F)cc3)C3CCC3)cc12 [CDD-2262, 5-((1-cyclobutyl-3-(4-(trifluoromethoxy)phenyl)ureido)methyl)pyrazolo[1,5-a]pyridine-3-carboxylic acid]
- cell penetration and effect in NanoBRET assays [6]: able to penetrate cell membranes to induce an effect
- concentration at which PTGS2 mRNA is statistically suppressed [9]: > 100 nM

Molecule: FC(F)(F)c1ccc(CNc2ccc(Cc3c[nH]c4ncc(Cl)cc34)cn2)cn1 [Pexidartinib]
- IC50 [10]: 9 nM

Molecule: CC(C)N(Cc1ccn2ncc(C(=O)O)c2c1)C(=O)Nc1ccc(OC(F)(F)F)cc1 [CDD-2330, 5-((1-isopropyl-3-(4-(trifluoromethoxy)phenyl)ureido)methyl)pyrazolo[1,5-a]pyridine-3-carboxylic acid]
- IC50 [11]: 1.2 nM
- kinome-wide selectivity (KINOMEscan) [12]: highly specific for NTRK1, NTRK2, and NTRK3; also recorded: high specificity for NTRKs, with MAP3K19 as the only possible off-target
- half-life [3]: 27.2 h
- blood level after oral administration [13]: rapid disappearance in the blood
- half-life [4]: > 25 h
- IC50 [5]: 3.5 nM
- cell penetration and effect in NanoBRET assays [6]: able to penetrate cell membranes to induce an effect
- potential liver and other tissue toxicity ([14]; high dose, 50 mg/kg): minimal effects
- ALT [14, 24]: 13.97 U/L and 26.17 U/L and 13.44 U/L and 18.74 U/L
- AST [14, 24]: 19.45 U/L and 18.92 U/L and 26.17 U/L and 13.26 U/L
- Kp at 4 h ([15]; brain, read-out: Brain:Plasma): 0.31
- Kp at 4 h ([15]; testis, read-out: Testis:Plasma): 0.31
- IC50 [16]: 1.2 to 3.8 nM
- half-life [7]: 25.6 h
- selectivity over MAP3K19 ([17]; NTRKs vs MAP3K19, Z'-LYTE): > 100 fold
- IC50 ([17]; Z'-LYTE dose response): 401 nM
- IC50 [18]: 3.8 nM

Molecule: CN1CCN(c2ccc(C(=O)Nc3n[nH]c4ccc(Cc5cc(F)cc(F)c5)cc34)c(NC3CCOCC3)c2)CC1 [Entrectinib, N-(5-(3,5-difluorobenzyl)-1H-indazol-3-yl)-4-(4-methylpiperazin-1-yl)-2-((tetrahydro-2H-pyran-4-yl)amino)benzamide]
- blood-brain barrier crossing [1]: cross the blood-brain barrier

- IC50 [11]: 3.1 nM
- half-life [3]: 2.6 h
- IC50 [5]: 2.3 nM
- concentration at 24 h [20]: 40 ng/g
- half-life [7]: 3.17 h
- IC50 [18]: 6.1 nM
Molecule: CC(C)N(Cc1ccn2ncc(C(N)=O)c2c1)C(=O)Nc1ccc(OC(F)(F)F)cc1 [CDD-2737, 5-((1-isopropyl-3-(4-(trifluoromethoxy)phenyl)ureido)methyl)pyrazolo[1,5-a]pyridine-3-carboxamide]
- number and size of lesions [19]: decreases the number of lesions and the size of lesions; also recorded: decreased number of lesions and lesions of diminished size
- cell penetration and effect in NanoBRET assays [6]: able to penetrate cell membranes to induce an effect
- gross and serum effects on the liver and kidney ([21]; endometriosis mouse model): no gross or serum effects; also recorded: no gross effects
- ALT (U/L), Average [21, 25]: 15.2 U/L
- AST (U/L), Average [21, 25]: 31.3 U/L
- ALT (U/L) [21, 26]: 13.79 U/L and 13.61 U/L and 10.25 U/L and 23.16 U/L
- AST (U/L) [21, 26]: 28.11 U/L and 47.21 U/L and 27.58 U/L and 22.28 U/L

- IC50 [11]: 13.7 nM
- half-life [3]: 0.105 h
- IC50 [5]: 6.1 nM
- half-life [7]: 0.472 h
- IC50 [18]: 34 nM
Molecule: CC(C)c1ccc(OCC(=O)N(Cc2ccn3ncc(C(N)=O)c3c2)C(C)C)cc1 [CDD-3032, 5-((N-isopropyl-2-(4-isopropylphenoxy)acetamido)methyl)pyrazolo[1,5-a]pyridine-3-carboxamide]
- cell penetration and effect in NanoBRET assays [6]: able to penetrate cell membranes to induce an effect

Molecule: 1-cyclobutyl-1-(pyrazolo[1,5-a]pyridin-5-ylmethyl)-3-(4-(trifluoromethoxy)phenyl)urea [CDD-2219]
- MLM t1/2 [22]: 0.47 h
- IC50 [5]: 13 nM
- HLM t1/2 [23]: 0.913 h
- cell penetration and effect in NanoBRET assays [6]: able to penetrate cell membranes to induce an effect
- Ki ([8]; read-out: NTRK2 Ki^app, apparent inhibition constant): 21 ± 7 nM

- IC50 [5]: 43 nM
- Ki [8]: 34 ± 10 nM
Molecule: CCOc1ccc(CC(=O)N(Cc2ccn3nccc3c2)[C@H](C)c2ccccc2)cc1 [CDD-2222, (R)-2-(4-ethoxyphenyl)-N-(1-phenylethyl)-N-(pyrazolo[1,5-a]pyridin-5-ylmethyl)acetamide]
